In PubChem BioAssay AID248 (DTP/NCI, 2004) one finds T/C data, which are given here for 23 compounds.

The experiment has as its system L1210 leukemia ip in BDF1 mice, survival T/C. Description: NCI In Vivo Anticancer Drug Screen. Data for tumor model L1210 Leukemia (intraperitoneal) in B6D2F1 (BDF1) mice. The settings on record: endpoint: mean survival time, higher = longer survival. Put shortly:
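Ratio derived from survival: compound-dosed mice over vehicle-dosed mice, all bearing a transplantable tumor.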

The mark [1] stands for this setting: dose: 100.0 mg/kg/injection, schedule: Q01DX009 (ip), vehicle: saline with Tween-80.
Setting [2] is: dose: 100.0 mg/kg/injection, schedule: Q04DX003 (ip), vehicle: saline with Tween-80.
The mark [3] stands for this setting: dose: 200.0 mg/kg/injection, schedule: Q04DX003 (ip), vehicle: saline with Tween-80.
The mark [4] stands for this setting: dose: 400.0 mg/kg/injection, schedule: Q04DX003 (ip), vehicle: saline with Tween-80.
Setting [5] is: dose: 200.0 mg/kg/injection, schedule: Q01DX009 (ip), vehicle: saline with Tween-80.
The mark [6] stands for this setting: dose: 400.0 mg/kg/injection, schedule: Q01DX009 (ip), vehicle: saline with Tween-80.
[7] abbreviates: dose: 100.0 mg/kg/injection, schedule: Q04DX003 (ip), vehicle: Klucel (hydroxypropylcellulose) (HPC).
[8] abbreviates: dose: 200.0 mg/kg/injection, schedule: Q04DX003 (ip), vehicle: Klucel (hydroxypropylcellulose) (HPC).
The mark [9] stands for this setting: dose: 400.0 mg/kg/injection, schedule: Q04DX003 (ip), vehicle: Klucel (hydroxypropylcellulose) (HPC).
[10] abbreviates: dose: 50.0 mg/kg/injection, schedule: Q01DX009 (ip), vehicle: Klucel (hydroxypropylcellulose) (HPC).
The mark [11] stands for this setting: dose: 100.0 mg/kg/injection, schedule: Q01DX009 (ip), vehicle: Klucel (hydroxypropylcellulose) (HPC).
[12] abbreviates: dose: 75.0 mg/kg/injection, schedule: Q04DX003 (ip), vehicle: Klucel (hydroxypropylcellulose) (HPC).
Where [13] appears, read: dose: 150.0 mg/kg/injection, schedule: Q04DX003 (ip), vehicle: Klucel (hydroxypropylcellulose) (HPC).
Setting [14] is: dose: 100.0 mg/kg/injection, schedule: Q01DX001 (ip), vehicle: Klucel (hydroxypropylcellulose) (HPC).
Setting [15] is: dose: 200.0 mg/kg/injection, schedule: Q01DX001 (ip), vehicle: Klucel (hydroxypropylcellulose) (HPC).
Where [16] appears, read: dose: 200.0 mg/kg/injection, schedule: Q01DX009 (ip), vehicle: Klucel (hydroxypropylcellulose) (HPC).
Setting [17] is: dose: 400.0 mg/kg/injection, schedule: Q01DX001 (ip), vehicle: Klucel (hydroxypropylcellulose) (HPC).
Setting [18] is: dose: 400.0 mg/kg/injection, schedule: Q01DX009 (ip), vehicle: Klucel (hydroxypropylcellulose) (HPC).
The mark [19] stands for this setting: dose: 100.0 mg/kg/injection, schedule: Q04DX002 (ip), vehicle: Klucel (hydroxypropylcellulose) (HPC).
[20] abbreviates: dose: 200.0 mg/kg/injection, schedule: Q04DX002 (ip), vehicle: Klucel (hydroxypropylcellulose) (HPC).
Where [21] appears, read: dose: 400.0 mg/kg/injection, schedule: Q04DX002 (ip), vehicle: Klucel (hydroxypropylcellulose) (HPC).

The structures appear in SMILES notation. Several values for one entry are separate records, joined by “and”; a condition that tells them apart may be missing. Equal entries are not always repeated. Inconclusive results and toxic doses are left out.

In the case of `CC(Oc1ccccc1)C(=O)NC(=S)Nc1cccc2ccccc12` (stereo not drawn), the T/C (dose: 50.0 mg/kg/injection, schedule: Q01DX009 (ip), vehicle: saline with Tween-80) was 90 % of control and 91 % of control; the T/C (dose: 100.0 mg/kg/injection, schedule: Q01DX001 (ip), vehicle: saline with Tween-80) is 108 % of control; the T/C under setting [1] was 100 % of control and 86 % of control; the T/C (dose: 100.0 mg/kg/injection, schedule: Q04DX002 (ip), vehicle: saline with Tween-80) was 108 % of control and 114 % of control; the T/C under setting [2] was 108 % of control; the T/C (dose: 200.0 mg/kg/injection, schedule: Q01DX001 (ip), vehicle: saline with Tween-80) is 95 % of control. The T/C is, setting by setting: (dose: 200.0 mg/kg/injection, schedule: Q04DX002 (ip), vehicle: saline with Tween-80) 93 % of control and 105 % of control; under setting [3], 92 % of control; (dose: 400.0 mg/kg/injection, schedule: Q01DX001 (ip), vehicle: saline with Tween-80) 93 % of control; (dose: 400.0 mg/kg/injection, schedule: Q04DX002 (ip), vehicle: saline with Tween-80) 93 % of control and 88 % of control; under setting [4], 92 % of control.
`CCC(C1CCC(O)CC1)C(CC)C1CCC(C2=CC(=O)OC2)CC1` (stereo not drawn): the T/C runs as follows: (dose: 25.0 mg/kg/injection, schedule: Q04DX003 (ip), vehicle: saline) 100 % of control; (dose: 50.0 mg/kg/injection, schedule: Q04DX003 (ip), vehicle: saline) 94 % of control; (dose: 100.0 mg/kg/injection, schedule: Q04DX003 (ip), vehicle: saline) 94 % of control.
Consider `CCOC(=O)Cc1ccccc1`, for which the T/C under setting [1] was 97 % of control; the T/C (dose: 175.0 mg/kg/injection, schedule: Q04DX003 (ip), vehicle: saline with Tween-80) was 91 % of control; the T/C under setting [5] is 104 % of control; the T/C (dose: 265.0 mg/kg/injection, schedule: Q04DX003 (ip), vehicle: saline with Tween-80) is 106 % of control; the T/C under setting [6] was 99 % of control.
For the compound `Cc1cc(N(C)C)cc(C)c1N=Nc1cc(Cl)ccc1Cl`, the T/C is, setting by setting: under setting [7], 94 % of control; under setting [8], 96 % of control; under setting [9], 87 % of control.
With `Cc1cc(C)c(F)[c]([Hg][Br])c1N`, the T/C by setting is: (dose: 12.5 mg/kg/injection, schedule: Q01DX009 (ip), vehicle: Klucel (hydroxypropylcellulose) (HPC)) 96 % of control; (dose: 37.5 mg/kg/injection, schedule: Q01DX001 (ip), vehicle: Klucel (hydroxypropylcellulose) (HPC)) 94 % of control; under setting [10], 96 % of control; under setting [11], 89 % of control.
`OC[CH2][Hg][Cl]`: the T/C reads like this: (dose: 1.56 mg/kg/injection, schedule: Q01DX009 (ip), vehicle: saline) 94 % of control; (dose: 3.13 mg/kg/injection, schedule: Q01DX009 (ip), vehicle: saline) 86 % of control.
On to `O=C(NC/C=C/Br)NC1CCCc2ccccc21` (stereo not drawn), for which the T/C (dose: 100.0 mg/kg/injection, schedule: Q01DX009 (ip), vehicle: other) is 106 % of control; the T/C (dose: 200.0 mg/kg/injection, schedule: Q01DX009 (ip), vehicle: other) was 110 % of control; the T/C (dose: 400.0 mg/kg/injection, schedule: Q01DX009 (ip), vehicle: other) is 100 % of control.
For the compound `C#CCI`, the T/C reads like this: (dose: 37.5 mg/kg/injection, schedule: Q04DX003 (ip), vehicle: Klucel (hydroxypropylcellulose) (HPC)) 108 % of control; under setting [12], 100 % of control; under setting [13], 103 % of control.
Consider `CCC[CH2][Sn]([CH2]CCC)([S]C#N)[S]C#N`, for which the T/C is 101 % of control (dose: 3.12 mg/kg/injection, schedule: Q04DX002 (ip), vehicle: gum acacia); 96 % of control (dose: 6.25 mg/kg/injection, schedule: Q04DX002 (ip), vehicle: gum acacia); 96 % of control (dose: 12.5 mg/kg/injection, schedule: Q04DX002 (ip), vehicle: gum acacia).
As to `Oc1ccccc1C=NC1CCCCC1.Oc1ccccc1C=NC1CCCCC1.[Co+2]`, the T/C is 100 % of control under setting [7] and 100 % of control under setting [8].
As for `CCCCCCCCCCC(=O)OCC1OC2C(Oc3nc(=N)ccn32)C1OC(=O)CCCCCCCCCC` (stereo not drawn), the T/C is, setting by setting: (dose: 25.0 mg/kg/injection, schedule: Q01DX009 (ip), vehicle: water) 166 % of control; (dose: 50.0 mg/kg/injection, schedule: Q01DX009 (ip), vehicle: water) 210 % of control.
Take `CCOC(=O)CNC(=O)NCCc1ccccc1`: the T/C runs as follows: under setting [1], 112 % of control; under setting [5], 96 % of control; under setting [6], 87 % of control.
Turning to `COc1ncnc2nc[nH]c12`, the T/C (dose: 50.0 mg/kg/injection, schedule: Q01DX001 (ip), vehicle: Klucel (hydroxypropylcellulose) (HPC)) is 97 % of control; the T/C under setting [14] is 103 % of control; the T/C under setting [11] is 101 % of control; the T/C under setting [7] is 97 % of control; the T/C under setting [15] was 98 % of control; the T/C under setting [16] is 102 % of control. Also, the T/C by setting is: under setting [8], 105 % of control; under setting [17], 101 % of control; under setting [18], 98 % of control; under setting [9], 106 % of control.
As for `Brc1cccc[n+]1Cc1ccc(C[n+]2ccccc2Br)cc1`, the T/C (dose: 2.66 mg/kg/injection, schedule: Q01DX Z (ip), vehicle: saline) was 98 % of control.
Consider `Cc1ccc(C(c2ccccc2)c2ccccc2)cc1C`, for which the T/C runs as follows: (dose: 100.0 mg/kg/injection, schedule: Q01DX001 (ip), vehicle: saline) 97 % of control; (dose: 400.0 mg/kg/injection, schedule: Q01DX001 (ip), vehicle: saline) 88 % of control.
Take `C[Si](C)(C)CCc1ccccc1`: the T/C under setting [2] was 98 % of control, the T/C under setting [3] was 95 % of control and the T/C under setting [4] is 93 % of control.
Take `O=C(Nc1ccccc1C(F)(F)F)c1ccc(F)cc1`: the T/C under setting [14] is 99 % of control; the T/C under setting [11] was 95 % of control and 103 % of control; the T/C under setting [19] is 98 % of control and 121 % of control; the T/C under setting [7] was 105 % of control; the T/C under setting [15] is 95 % of control; the T/C under setting [16] is 94 % of control and 95 % of control. Moreover, the T/C is 100 % of control and 101 % of control under setting [20]; 100 % of control under setting [8]; 104 % of control under setting [17]; 95 % of control and 97 % of control under setting [18]; 96 % of control and 100 % of control under setting [21]; 113 % of control under setting [9].
Consider `COC(=O)C1CC(=O)N(Cc2ccccc2)C1` (stereo not drawn), for which the T/C reads like this: under setting [19], 89 % of control; under setting [20], 100 % of control; under setting [21], 92 % of control.
Regarding `CC1=CC(OC2CCCCO2)C2CC1C2(C)C` (stereo not drawn), the T/C under setting [11] was 97 % of control; the T/C under setting [7] was 98 % of control; the T/C under setting [16] is 103 % of control; the T/C under setting [8] was 95 % of control; the T/C under setting [18] is 92 % of control; the T/C under setting [9] was 93 % of control.
On to `O=C(CCO)Nc1cccc(Cl)c1`, for which the T/C is, setting by setting: under setting [14], 98 % of control; under setting [11], 93 % of control; under setting [15], 101 % of control; under setting [16], 88 % of control; under setting [17], 91 % of control; under setting [18], 92 % of control.
`O=C(O)CS(=O)(=O)CC(=O)O`: the T/C is, setting by setting: under setting [2], 98 % of control; under setting [3], 93 % of control.
Take `OC1=NN(Cc2ccccc2)NO1`: the T/C was 95 % of control (dose: 25.0 mg/kg/injection, schedule: Q01DX009 (ip), vehicle: Klucel (hydroxypropylcellulose) (HPC)); 95 % of control under setting [10]; 92 % of control under setting [11]; 104 % of control under setting [19]; 104 % of control under setting [20]; 93 % of control under setting [21].
`Cc1ccc(C(=O)C=Nc2ccccc2C(=O)O)cc1`: the T/C is 94 % of control under setting [12]; 95 % of control under setting [13]; 103 % of control (dose: 300.0 mg/kg/injection, schedule: Q04DX003 (ip), vehicle: Klucel (hydroxypropylcellulose) (HPC)).
